In US20180148429A1 (SELVITA S.A., priority 2015, published 2018):

What follows are molecules tested against T1, Human recombinant His-tagged PFKFB3 (Homo sapiens, UniProt Q16875) (assay: PFKFB3 IC50 determination assay (in vitro kinase assay, modified ADP-Glo system)). Conditions: not given.
T1 construct: His; made in house
Assay type: biochemical
Description: PFKFB3 IC50 Determination Assay
In vitro kinase assay used to determine IC50 values for tested inhibitors is based on a modified ADP-Glo™ system (Promega) and consists of two parts:
1. Kinase reaction—performed in optimized conditions. At this step PFKFB3 phosphorylates its substrate fructose-6-phosphate using ATP as a source of phosphate to produce fructose-2,6-bisphosphate and ADP. Reaction is performed at Km values for ATP and substrate using optimized buffer composition and time of the reaction. Human recombinant His-tagged PFKFB3 (PFKFB3 BATCH II SEC) with confirmed activity is produced and purified in-house.
2. Detection of ADP as a product of the reaction using ADP-Glo™ system. This part is conducted by using the commercially available kit ADP-Glo™ Kinase Assay (Promega, cat. No# V9103) according to manufacturer's instruction, modified by 5× dilutions of assay reagents (both ADP-Glo™ Reagent and Kinase Detection Solution).
Test compounds are dissolved in DMSO and then transferred to the V-bottom 96-well plate.
15 μL per well of Mix 1 is transferred to assay wells of 96-well white plate. […] Total reaction volume is 30 μL per well. Samples are tested in duplicates. Final concentration of DMSO in the reaction is 6.7%. Conditions needed for performing PFKFB3 (PFKFB3 BATCH II SEC) in vitro kinase assay are given below:
This protocol is based on Technical Bulletin, ADP-Glo™ Kinase Assay (Promega) and is adapted to 96-well plate containing 30 μL reaction mixture:
The plate is incubated for 90 minutes on a shaker at rt. […] Plate is incubated for 40 minutes on a shaker at rt, protected from light. Luminescence is measured in the plate reader Synergy 2 (BioTek).
Luminescent readouts for compounds tested in 10 concentrations (routinely from 100 μM to […], […] serial dilutions) in duplicates, as well as for positive control, are first normalized to no-substrate negative control by its subtraction. In the next step, % of normalized positive control is calculated for each data point and plotted against test compound concentration:
% of control—percent of positive control normalized to no-substrate negative control Lumcpd—luminescence of test compound Lumneg—luminescence of no-substrate negative control Lumpos—luminescence of positive control
IC50 parameter is determined by the GraphPad Prism 5.0 software
[log(inhibitor) vs. response−Variable slope (four parameters)].

T1 sequence (Q16875 whole entry): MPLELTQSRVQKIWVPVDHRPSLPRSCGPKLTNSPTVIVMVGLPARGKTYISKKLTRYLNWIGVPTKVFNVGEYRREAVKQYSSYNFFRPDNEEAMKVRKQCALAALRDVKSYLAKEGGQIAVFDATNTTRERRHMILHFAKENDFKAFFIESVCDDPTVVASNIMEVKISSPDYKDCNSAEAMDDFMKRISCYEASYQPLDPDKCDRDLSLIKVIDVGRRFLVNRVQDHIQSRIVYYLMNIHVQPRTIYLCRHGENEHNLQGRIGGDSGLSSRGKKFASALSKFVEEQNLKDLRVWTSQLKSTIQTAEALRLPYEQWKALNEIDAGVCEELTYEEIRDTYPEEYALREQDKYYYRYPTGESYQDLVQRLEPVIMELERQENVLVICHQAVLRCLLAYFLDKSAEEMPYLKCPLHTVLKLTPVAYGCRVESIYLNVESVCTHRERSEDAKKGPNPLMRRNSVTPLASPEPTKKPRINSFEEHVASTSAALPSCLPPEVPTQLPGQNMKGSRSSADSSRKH

SMILES	IC50
Cc1nc(CNc2cc(-c3ccc4ccn(C)c4c3)c3nccnc3c2)n[nH]1 [Example 283, N-[(5-methyl-1H-1,2,4-triazol-3-yl)methyl]-8-(1-methyl-1H-indol-6-yl)quinoxalin-6-amine]	1000 to 10000 nM
COc1ccc(C(Nc2cc(-c3ccc4ccn(C)c4c3)c3nccnc3c2)c2cnnn2C)cn1 (stereo not drawn) [Example 299, N-[(6-methoxypyridin-3-yl)(1-methyl-1H-1,2,3-triazol-5-yl)methyl]-8-(1-methyl-1H-indol-6-yl)quinoxalin-6-amine]	1 to 1000 nM

Same assay, conditions: ADP-Glo; ATP 20 μM (Km), fructose-6-phosphate 2 μM (Km), 25 nM PFKFB3, 2 h, rt; read-out: PFKFB3 IC50

IC50	SMILES
1 to 1000 nM	Cn1ccc2ccc(-c3cc(NCc4ccns4)cc4nccnc34)cc21 [Example 281, 8-(1-methyl-1H-indol-6-yl)-N-[(1,2-thiazol-5-yl)methyl]quinoxalin-6-amine]
1000 to 10000 nM	Cc1nnc(CNc2cc(-c3ccc4ccn(C)c4c3)c3nccnc3c2)o1 [Example 282, N-[(5-methyl-1,3,4-oxadiazol-2-yl)methyl]-8-(1-methyl-1H-indol-6-yl)quinoxalin-6-amine]
10000 to 100000 nM	Cn1ccc2ccc(-c3cc(NCc4c[nH]cn4)cc4nccnc34)cc21 [Example 284, N-(1H-imidazol-4-ylmethyl)-8-(1-methyl-1H-indol-6-yl)quinoxalin-6-amine]
1000 to 10000 nM	Cc1ncc(CNc2cc(-c3ccc4ccn(C)c4c3)c3nccnc3c2)n1C [Example 285, N-[(1,2-dimethyl-1H-imidazol-5-yl)methyl]-8-(1-methyl-1H-indol-6-yl)quinoxalin-6-amine]
1 to 1000 nM	CC(=O)N1CCC(C(Nc2cc(-c3ccc4ccn(C)c4c3)c3nccnc3c2)c2cnccc2C)CC1 (stereo not drawn) [Example 287, 1-[4-({[8-(1-methyl-1H-indol-6-yl)quinoxalin-6-yl]amino}(4-methylpyridin-3-yl)methyl)piperidin-1-yl]ethan-1-one]
1 to 1000 nM	Cn1ccc2ccc(-c3cc(NC(c4cccnc4)c4ccnc(N)c4)cc4nccnc34)cc21 (stereo not drawn) [Example 288, N-[(2-aminopyridin-4-yl)(pyridin-3-yl)methyl]-8-(1-methyl-1H-indol-6-yl)quinoxalin-6-amine]
1000 to 10000 nM	CC(=O)N1CC(C(Nc2cc(-c3ccc4ccn(C)c4c3)c3nccnc3c2)c2cccnc2)C1 (stereo not drawn) [Example 289, 1-[3-({[8-(1-methyl-1H-indol-6-yl)quinoxalin-6-yl]amino}(pyridin-3-yl)methyl)azetidin-1-yl]ethan-1-one]
1000 to 10000 nM	Cn1cnc(C(Nc2cc(-c3ccc4ccn(C)c4c3)c3nccnc3c2)c2cccnc2)c1 (stereo not drawn) [Example 290, N-[(1-methyl-1H-imidazol-4-yl)(pyridin-3-yl)methyl]-8-(1-methyl-1H-indol-6-yl)quinoxalin-6-amine]
10000 to 100000 nM	COc1ccc(C(Nc2cc(-c3ccc4sc(N)nc4c3)c3nccnc3c2)C2CCN(C(C)=O)CC2)cn1 (stereo not drawn) [Example 291, 1-[4-({[8-(2-amino-1,3-benzothiazol-5-yl)quinoxalin-6-yl]amino}(6-methoxypyridin-3-yl)methyl)piperidin-1-yl]ethan-1-one]
10000 to 100000 nM	CC(=O)N1CCC(C(Nc2cc(-c3ccc(Br)cc3)c3nccnc3c2)c2cccnc2)CC1 (stereo not drawn) [Example 292, 1-[4-({[8-(4-bromophenyl)quinoxalin-6-yl]amino}(pyridin-3-yl)methyl)piperidin-1-yl]ethan-1-one]
1000 to 10000 nM	CC(=O)N1CCC(C(Nc2cc(-c3ccc4sc(N)nc4c3)c3nccnc3c2)c2cccnc2)CC1 (stereo not drawn) [Example 293, 1-[4-({[8-(2-amino-1,3-benzothiazol-5-yl)quinoxalin-6-yl]amino}(pyridin-3-yl)methyl)piperidin-1-yl]ethan-1-one]
1000 to 10000 nM	CC(=O)N1CCC(C(Nc2cc(-c3ccc4ccn(C)c4c3)c3nccnc3c2)c2ccc(=O)n(C)c2)CC1 (stereo not drawn) [Example 294, 5-[(1-acetylpiperidin-4-yl)({[8-(1-methyl-1H-indol-6-yl)quinoxalin-6-yl]amino})methyl]-1-methyl-1,2-dihydropyridin-2-one]
1 to 1000 nM	COc1ccc(C(Nc2cc(-c3ccc4sc(N)nc4c3)c3nccnc3c2)c2cccnc2)cn1 (stereo not drawn) [Example 295, 8-(2-amino-1,3-benzothiazol-5-yl)-N-[(6-methoxypyridin-3-yl)(pyridin-3-yl)methyl]quinoxalin-6-amine]
1 to 1000 nM	Cn1ccc2ccc(-c3cc(NC(c4cccnc4)c4ccc(N)nc4)cc4nccnc34)cc21 (stereo not drawn) [Example 296, N-[(6-aminopyridin-3-yl)(pyridin-3-yl)methyl]-8-(1-methyl-1H-indol-6-yl)quinoxalin-6-amine]
10000 to 100000 nM	COc1ccc(C(c2cccnc2)N(C)c2cc(-c3ccc4ccn(C)c4c3)c3nccnc3c2)cn1 (stereo not drawn) [Example 297, N-[(6-methoxypyridin-3-yl)(pyridin-3-yl)methyl]-N-methyl-8-(1-methyl-1H-indol-6-yl)quinoxalin-6-amine]
1 to 1000 nM	CNC(=O)N1CCC(C(Nc2cc(-c3ccc4ccn(C)c4c3)c3nccnc3c2)c2cccnc2)CC1 (stereo not drawn) [Example 298, N-methyl-4-({[8-(1-methyl-1H-indol-6-yl)quinoxalin-6-yl]amino}(pyridin-3-yl)methyl)piperidine-1-carboxamide]
1 to 1000 nM	CN(C)C(=O)N1CCC(C(Nc2cc(-c3ccc4ccn(C)c4c3)c3nccnc3c2)c2cccnc2)CC1 (stereo not drawn) [Example 300, N,N-dimethyl-4-({[8-(1-methyl-1H-indol-6-yl)quinoxalin-6-yl]amino}(pyridin-3-yl)methyl)piperidine-1-carboxamide]
1000 to 10000 nM	Cn1nccc1CNc1cc(-c2ccc3ccn(C)c3c2)c2nccnc2c1 [Example 301, 8-(1-methyl-1H-indol-6-yl)-N-[(1-methyl-1H-pyrazol-5-yl)methyl]quinoxalin-6-amine]
1 to 1000 nM	COc1ccc(C(Nc2cc(-c3ccc4scc(C)c4c3)c3nccnc3c2)c2cnnn2C)cn1 (stereo not drawn) [Example 302, N-[(6-methoxypyridin-3-yl)(1-methyl-1H-1,2,3-triazol-5-yl)methyl]-8-(3-methyl-1-benzothiophen-5-yl)quinoxalin-6-amine]
1000 to 10000 nM	CNc1ccc(C(Nc2cc(-c3ccc4ccn(C)c4c3)c3nccnc3c2)c2cccnc2)cn1 (stereo not drawn) [Example 305, 8-(1-methyl-1H-indol-6-yl)-N-{[6-(methylamino)pyridin-3-yl](pyridin-3-yl)methyl}quinoxalin-6-amine]
1000 to 10000 nM	Cn1cc(CNc2cc(-c3ccc4ccn(C)c4c3)c3nccnc3c2)cn1 [Example 306, 8-(1-methyl-1H-indol-6-yl)-N-[(1-methyl-1H-pyrazol-4-yl)methyl]quinoxalin-6-amine]
10000 to 100000 nM	CC(=O)Nc1ccc(C(Nc2cc(-c3ccc4ccn(C)c4c3)c3nccnc3c2)c2cccnc2)cn1 (stereo not drawn) [Example 307, N-[5-({[8-(1-methyl-1H-indol-6-yl)quinoxalin-6-yl]amino}(pyridin-3-yl)methyl)pyridin-2-yl]acetamide]
1 to 1000 nM	Cn1ccc2ccc(-c3cc(NC(c4cccnc4)C4CCC(N)CC4)cc4nccnc34)cc21 (stereo not drawn) [Example 308, N-[(4-aminocyclohexyl)(pyridin-3-yl)methyl]-8-(1-methyl-1H-indol-6-yl)quinoxalin-6-amine]
1000 to 10000 nM	COc1ccc(C(Nc2cc(-c3ccc4ccn(C)c4c3)c3nccnc3c2)c2ccc(OC)nc2)cn1 [Example 309, N-[bis(6-methoxypyridin-3-yl)methyl]-8-(1-methyl-1H-indol-6-yl)quinoxalin-6-amine]
1000 to 10000 nM	CC(=O)N1CCC([C@@H](Nc2cc(-c3ccc4scc(C)c4c3)c3nccnc3c2)c2cccnc2)CC1 [Example 310, 1-{4-[(R)-{[8-(3-methyl-1-benzothiophen-5-yl)quinoxalin-6-yl]amino}(pyridin-3-yl)methyl]piperidin-1-yl}ethan-1-one]
1 to 1000 nM	CC(=O)N1CCC([C@H](Nc2cc(-c3ccc4scc(C)c4c3)c3nccnc3c2)c2cccnc2)CC1 [Example 311, 1-{4-[(S)-{[8-(3-methyl-1-benzothiophen-5-yl)quinoxalin-6-yl]amino}(pyridin-3-yl)methyl]piperidin-1-yl}ethan-1-one]
1000 to 10000 nM	Cc1ncc(CNc2cc(-c3ccc4ccn(C)c4c3)c3nccnc3c2)o1 [Example 312, N-[(2-methyl-1,3-oxazol-5-yl)methyl]-8-(1-methyl-1H-indol-6-yl)quinoxalin-6-amine]

SMILES	IC50
CN1C2CCC1CC(C(Nc1cc(-c3ccc4ccn(C)c4c3)c3nccnc3c1)c1cccnc1)C2 (stereo not drawn) [Example 304, 8-(1-methyl-1H-indol-6-yl)-N-({8-methyl-8-azabicyclo[3.2.1]octan-3-yl}(pyridin-3-yl)methyl)quinoxalin-6-amine]	1 to 1000 nM
